Experimental findings from patent publication EP0179667B1, “N6-substituted adenosines” (priority 1984, dated 1986) are described below.

Format in all cases: in vivo
For series [1], the system named is Swiss-Webster male mice. The series can be described thus: Mouse Activity and Screen Test Procedure (MAST): locomotor activity in actophotometer. To be noted: one hour prior to testing. As for the experimental part:
Nine unfasted Swiss-Webster male mice weighing 20-30 g equally divided into three groups for each drug dose to be tested. That is, data for each dose level was generated by three separated groups of three mice each. A minimum of three dose levels (10, 30, and 100 mg/kg) are tested for each drug. Treatments are administered intraperitoneally one hour prior to testing. All dosages are calculated as parent compound and given in volumes of 10 ml/kg. […] Control animals are injected with Methocel. […] The actophotometer consists of a cylindrical chamber whose center is occupied by another cylinder which contains the illumination for six photocells located on the perimeter of the chamber. Six light-beam interruptions equal one count. […] Data: The data obtained from the screen test are expressed as percent of mice falling off the screen. Data derived from locomotor activity of drug treated mice are compared to the activity of vehicle treated animals and are expressed as percent inhibition of spontaneous locomotion. All percentages reported for inhibition of locomotion (LI) are based upon data accumulated for one hour. […] An overall dose rating is obtained by the following criteria: LAD refers to the lowest dose at which an A rating is achieved. […] The compounds are identified in the Examples.

For series [2], the system named is Swiss-Webster male mice. Put plainly: Mouse Activity and Screen Test Procedure (MAST): screen test (ST). To be noted: one hour postinjection. The source says: The compounds of the invention are new chemical substances which are useful as pharmaceutical agents for the treatment of psychoses. The antipsychotic activity of representative compounds of the invention was established by the Mouse Activity and Screen Test Procedrue (MAST) described below.
Nine unfasted Swiss-Webster male mice weighing 20-30 g equally divided into three groups for each drug dose to be tested. That is, data for each dose level was generated by three separated groups of three mice each.
A minimum of three dose levels (10, 30, and 100 mg/kg) are tested for each drug. Treatments are administered intraperitoneally one hour prior to testing. All dosages are calculated as parent compound and given in volumes of 10 ml/kg. Compounds are dissolved or suspended in 0.2% Methocel. Control animals are injected with Methocel.
Testing: A two part testing procedure is started one hour postinjection. First, the screen test (ST) is performed (see Pharmac. Biochem. Behav. 6, 351-353, 1977). Briefly this test consists of placing mice on individual wire screens which are then rotated 180 degrees at the start of a 60 second observation period. The number of mice falling off the inverted screen is recorded.
Data: The data obtained from the screen test are expressed as percent of mice falling off the screen. Data derived from locomotor activity of drug treated mice are compared to the activity of vehicle treated animals and are expressed as percent inhibition of spontaneous locomotion. All percentages reported for inhibition of locomotion (LI) are based upon data accumulated for one hour. Both phases of testing are graded: A=60-100%; G=31-59%; and N=0-30%. An overall dose rating is obtained by the following criteria:
LAD refers to the lowest dose at which an A rating is achieved. […] Utilizing this procedure, an overall dose rating of A was obtained for the noted compound at the indicated dose. The compounds are identified in the Examples.

A further series relates to conscious rat. Put plainly: Antihypertensive evaluation (AHP3): direct monitoring of aortic blood pressure and heart rate. The text has this: This test procedure is described in the following paragraphs. A Method for the Direct Monitoring of Aortic Blood Pressure and Heart Rate from Conscious Rats The continuous monitoring of pulsatile blood pressure (BP) from unrestrained conscious rats surgically equipped with polyethylene cannulas was accomplished by means of a computer assisted data capture scheme (CADCS). The basic elements of the methodology are the cannulation procedure and the CADCS. Cannulation Procedure: Rats were anesthetized with Telazol (1:1 tiletamine HCI and zolazepam HCI); 20-40 mg/kg IM and the descending aorta exposed via a midline incision. Cannulas fabricated from polyethylene tubing were inserted into the aorta via an undersized puncture hole below the renal arteries. […] The cannulas, consisting of a PE100 (0.86 mm ID) body and a PE50 (0.58 mm ID) tip, were attached to a trocar, inserted through the psoas muscle, and passed subcutaneously along the midline of the back and externalized between the ears. The cannulas were anchored to the posas muscle and between the scaluale (3-0 green braided suture). The midline incision was closed in two steps (muscle first, skin second) using continuous over-and over sutures (4-0 chronic). Each rat was then given penicillin 30,000 units subcutaneously (Penicillin G Procaine Sterile Suspension). The rats were fitted with a harness-spring-swivel assembly designed to protect the cannula and to provide the rat relative freedom of movement. […] While on test, each rat received a continuous slow infusion of heparinized saline solution (approximately 400 I or 40 units of heparin per 24 hour period) to prevent clot formation. […] The data were first stored on the data concentrator disk and then transferred to a magnetic tape for analysis and report generation by the main research computer. The overall scheme involved modulating the primary signal from the pressure transducer, generating the primary data set of the one-minute values for systolic, diastolic, and mean blood pressures and heart rate by the in-lab microcomputer and the storage, analysis, and report generation by the main research computer. The transducers were connected to analog signal conditioning mocules. The modules provided a regulated excitation voltage for the transducers, amplification as required to interface the microprocessors and an active low pass filter to compensate for the pressure wave form distortion produced by the flexible, fluid filled, narrow cannula. […] The microcomputer controlled the sequential acqusition of data from the modular interface units through an internal synchronous time-of-day clock/time base generator. […] The microcomputer processed each blood pressure sample as it was received to produce "running average" values for heart rate, and mean, systolic and diastolic blood pressures.

With `COc1ccc2c(c1)C(Nc1ncnc3c1ncn3[C@@H]1O[C@H](CO)[C@@H](O)[C@H]1O)CCC2` (single isomer, unassigned) [Example 5, N6-[1-(7-Methoxy)-tetralinyl]-adenosine], the entries for the “Inhibition of mouse locomotor activity” value in the series with Swiss-Webster male mice [1] (1 mg/kg intraperitoneally), in the series on Swiss-Webster male mice [1] (3 mg/kg intraperitoneally) and in the series with Swiss-Webster male mice [1] (10 mg/kg intraperitoneally) were 39%, 82% and 91%, respectively. The Screen test failure is 0% in the series with Swiss-Webster male mice [2] (1 mg/kg intraperitoneally), 11% with Swiss-Webster male mice [2] (3 mg/kg intraperitoneally) and 11% in the series on Swiss-Webster male mice [2] (10 mg/kg intraperitoneally). For the same molecule, in the series with conscious rat (3 mg/kg, Hour 1, conscious rat), the “change in HR (Heart Rate)” value worked out at 0%.
Consider `OC[C@H]1O[C@@H](n2cnc3c(NC4CCCc5ccccc54)ncnc32)C(O)[C@@H]1O` (stereo in doubt) [Example 1, (R,S)-N^6-[1-Tetralinyl]-adenosine], for which the “Inhibition of mouse locomotor activity” value in the series on Swiss-Webster male mice [1] (1 mg/kg intraperitoneally) was 86%; with Swiss-Webster male mice [1] (3 mg/kg intraperitoneally), 93%; with Swiss-Webster male mice [1] (10 mg/kg intraperitoneally), 98%; with Swiss-Webster male mice [1] (30 mg/kg intraperitoneally), 97%; with Swiss-Webster male mice [1] (100 mg/kg intraperitoneally) it was 99%. For the same molecule, the Screen test failure in the series on Swiss-Webster male mice [2] (1 mg/kg intraperitoneally) is listed as 0%; with Swiss-Webster male mice [2] (3 mg/kg intraperitoneally) it was 0%; in the series with Swiss-Webster male mice [2] (10 mg/kg intraperitoneally) it was 22%; in the series on Swiss-Webster male mice [2] (30 mg/kg intraperitoneally) it was 22%; with Swiss-Webster male mice [2] (100 mg/kg intraperitoneally) it was 99%. For the same molecule, the “change in HR (Heart Rate)” value with conscious rat (10 mg/kg, Hour 9, conscious rat) is on record as 0%.
For the molecule `OC[C@H]1O[C@H](n2cnc3c(NC4CCCc5ccccc54)ncnc32)[C@H](O)[C@@H]1O` (stereo partly drawn) [Example 3, (S)-N^6-[1-Tetralinyl]-adenosine], the “Inhibition of mouse locomotor activity” value in the series on Swiss-Webster male mice [1] (0.1 mg/kg intraperitoneally) was 40%; in the series with Swiss-Webster male mice [1] (0.3 mg/kg intraperitoneally), 34%; in the series on Swiss-Webster male mice [1] (1 mg/kg intraperitoneally), 30%; with Swiss-Webster male mice [1] (3 mg/kg intraperitoneally) it was 69%; with Swiss-Webster male mice [1] (10 mg/kg intraperitoneally), 95%; in the series with Swiss-Webster male mice [1] (30 mg/kg intraperitoneally) it was 96%. Also, the Screen test failure with Swiss-Webster male mice [2] (0.1 mg/kg intraperitoneally) is 11%; with Swiss-Webster male mice [2] (0.3 mg/kg intraperitoneally) it was 0%; with Swiss-Webster male mice [2] (1 mg/kg intraperitoneally), 22%; in the series on Swiss-Webster male mice [2] (3 mg/kg intraperitoneally) it was 0%; in the series on Swiss-Webster male mice [2] (10 mg/kg intraperitoneally), 0%; in the series with Swiss-Webster male mice [2] (30 mg/kg intraperitoneally), 11%. Besides, the “change in HR (Heart Rate)” value in the series with conscious rat (10 mg/kg, Hour 5, conscious rat) was 0%.
For the molecule `OC[C@H]1O[C@@H](n2cnc3c(NCC4=CCc5ccccc54)ncnc32)[C@H](O)[C@@H]1O` [Example 22, N^6-[1H-inden-3-yl]methyladenosine], the “Inhibition of mouse locomotor activity” value with Swiss-Webster male mice [1] (0.1 mg/kg intraperitoneally) is 30%; with Swiss-Webster male mice [1] (0.3 mg/kg intraperitoneally), 38%; in the series with Swiss-Webster male mice [1] (1 mg/kg intraperitoneally), 76%; in the series with Swiss-Webster male mice [1] (3 mg/kg intraperitoneally), 76%; in the series with Swiss-Webster male mice [1] (10 mg/kg intraperitoneally) it was 96%; with Swiss-Webster male mice [1] (30 mg/kg intraperitoneally) it was 97%. Also, the Screen test failure is on record as 0% in the series on Swiss-Webster male mice [2] (0.1 mg/kg intraperitoneally); 11% with Swiss-Webster male mice [2] (0.3 mg/kg intraperitoneally); 0% in the series on Swiss-Webster male mice [2] (1 mg/kg intraperitoneally); 22% in the series on Swiss-Webster male mice [2] (3 mg/kg intraperitoneally); 11% in the series on Swiss-Webster male mice [2] (10 mg/kg intraperitoneally); 55% with Swiss-Webster male mice [2] (30 mg/kg intraperitoneally).
As to `OC[C@H]1O[C@@H](n2cnc3c(NCC4(O)CCCc5ccccc54)ncnc32)[C@H](O)[C@@H]1O` (some centres unmarked) [Example 23, N^6-[1-hydroxy-1-tetralinyl]methyl adenosine], the “Inhibition of mouse locomotor activity” value in the series on Swiss-Webster male mice [1] (3 mg/kg intraperitoneally) came to 19%; in the series with Swiss-Webster male mice [1] (10 mg/kg intraperitoneally), 16%; in the series with Swiss-Webster male mice [1] (30 mg/kg intraperitoneally) it was 77%. For the same molecule, the Screen test failure is listed as 0% with Swiss-Webster male mice [2] (3 mg/kg intraperitoneally), 0% in the series on Swiss-Webster male mice [2] (10 mg/kg intraperitoneally) and 22% in the series with Swiss-Webster male mice [2] (30 mg/kg intraperitoneally).
For `OC[C@H]1O[C@@H](n2cnc3c(NCC4=CCCc5ccccc54)ncnc32)[C@H](O)[C@@H]1O` [Example 24, N^6-[3,4-dihydro-1-naphthalenyl]methyladenosine], the “Inhibition of mouse locomotor activity” value with Swiss-Webster male mice [1] (0.3 mg/kg intraperitoneally) is given as 9%; in the series on Swiss-Webster male mice [1] (1 mg/kg intraperitoneally), 34%; with Swiss-Webster male mice [1] (3 mg/kg intraperitoneally), 67%; in the series on Swiss-Webster male mice [1] (10 mg/kg intraperitoneally) it was 94%; in the series on Swiss-Webster male mice [1] (30 mg/kg intraperitoneally) it was 95%. The Screen test failure in the series on Swiss-Webster male mice [2] (0.3 mg/kg intraperitoneally) was 0%; with Swiss-Webster male mice [2] (1 mg/kg intraperitoneally), 0%; in the series with Swiss-Webster male mice [2] (3 mg/kg intraperitoneally), 22%; with Swiss-Webster male mice [2] (10 mg/kg intraperitoneally) it was 22%; with Swiss-Webster male mice [2] (30 mg/kg intraperitoneally), 11%.
Regarding `OC[C@H]1O[C@@H](n2cnc3c(NCC4(O)CCc5ccccc54)ncnc32)[C@H](O)[C@@H]1O` (some centres unmarked) [Example 25, N^6-[2,3-dihydro-1-hydroxy-1H-inden-1-yl]methyladenosine], the “Inhibition of mouse locomotor activity” value in the series with Swiss-Webster male mice [1] (3 mg/kg intraperitoneally) was −14%; in the series on Swiss-Webster male mice [1] (10 mg/kg intraperitoneally) it was 89%; in the series with Swiss-Webster male mice [1] (30 mg/kg intraperitoneally), 88%. Further, the Screen test failure in the series with Swiss-Webster male mice [2] (3 mg/kg intraperitoneally) was determined as 11%; in the series with Swiss-Webster male mice [2] (10 mg/kg intraperitoneally), 22%; with Swiss-Webster male mice [2] (30 mg/kg intraperitoneally) it was 66%.
Consider `OC[C@H]1O[C@@H](n2cnc3c(NCC4=CCCCc5ccccc54)ncnc32)[C@H](O)[C@@H]1O` [Example 26, N^6-(1-benzocycloheptenyl)methyladenosine], for which the “Inhibition of mouse locomotor activity” value with Swiss-Webster male mice [1] (3 mg/kg intraperitoneally) stood at 50%; in the series on Swiss-Webster male mice [1] (10 mg/kg intraperitoneally) it was 31%; with Swiss-Webster male mice [1] (30 mg/kg intraperitoneally), 64%. Also, the results for the Screen test failure in the series with Swiss-Webster male mice [2] (3 mg/kg intraperitoneally), in the series with Swiss-Webster male mice [2] (10 mg/kg intraperitoneally) and with Swiss-Webster male mice [2] (30 mg/kg intraperitoneally) were 0%, 22% and 22%, respectively.
With `OC[C@H]1O[C@@H](n2cnc3c(NCC4(O)CCCCc5ccccc54)ncnc32)[C@H](O)[C@@H]1O` (some centres unmarked) [Example 27, N^6-(1-hydroxy-1-benzocycloheptyl]methyladenosine], the “Inhibition of mouse locomotor activity” value in the series on Swiss-Webster male mice [1] (3 mg/kg intraperitoneally) was determined as 1%; with Swiss-Webster male mice [1] (10 mg/kg intraperitoneally) it was 33%; in the series with Swiss-Webster male mice [1] (30 mg/kg intraperitoneally), 33%. The Screen test failure with Swiss-Webster male mice [2] (3 mg/kg intraperitoneally) came to 0%; in the series on Swiss-Webster male mice [2] (10 mg/kg intraperitoneally), 11%; in the series on Swiss-Webster male mice [2] (30 mg/kg intraperitoneally), 0%.
On to `OC[C@H]1O[C@@H](n2cnc3c(NCC4CCCCc5ccccc54)ncnc32)[C@H](O)[C@@H]1O` (some centres unmarked) [Example 28, N^6-(1-benzocycloheptyl)methyladenosine], for which the “Inhibition of mouse locomotor activity” value in the series on Swiss-Webster male mice [1] (3 mg/kg intraperitoneally) turned out to be 35%; in the series with Swiss-Webster male mice [1] (10 mg/kg intraperitoneally), 19%; in the series on Swiss-Webster male mice [1] (30 mg/kg intraperitoneally) it was 59%. For the same molecule, the Screen test failure in the series with Swiss-Webster male mice [2] (3 mg/kg intraperitoneally) amounted to 0%; in the series on Swiss-Webster male mice [2] (10 mg/kg intraperitoneally), 11%; with Swiss-Webster male mice [2] (30 mg/kg intraperitoneally) it was 0%.
